Laboratory results as given in patent US20110212199A1, “AGENT FOR TREATING EYE DISEASES” (priority 2003, published 2011).
Entries after “also recorded” stand apart in the source; their conditions may differ.

Tests used:
[1] = test system: cataract in ultraviolet ray irradiated eyes of mouse; assay: Treatment of cataract (animal experiment), UV-A+UV-B irradiation; type: in vivo
Method: Control group (Control): To eyes of mouse (4 eyes) were irradiated ultraviolet rays UV-A+UV-B (each 0.36J: 100 μW×1 hour) from 10 PM to 11 PM at the first day, the third day, the fifth day each once, and three times in total. Provided that, before 1 minute and after 1 minute of each ultraviolet ray irradiation, 1 drop (50 μl) of PBS (phosphate buffered physiological saline) was administered, and 1 drop of PBS was administered each once at the second day, the fourth day, the sixth day, the seventh day, the eighth day, the ninth day and the tenth day.
Pre-administered group of ultraviolet ray irradiation (Pre 0.1 g/l and Pre 0.01 g/l): To eyes of mouse were irradiated ultraviolet rays UV-A+UV-B (each 0.36J: 100 pW×1 hour) from 10 PM to 11 PM at the first day, the third day, the fifth day each once, and three times in total.
Post-administered group of ultraviolet ray irradiation (Post 0.1 g/l and Post 0.01 g/l): To eyes of mouse were irradiated ultraviolet rays UV-A+UV-B (each 0.36J: 100 μW×1 hour) from 10 PM to 11 PM at the first day, the third day and the fifth day each once, and three times in total.

[2] = test system: intraocular pressure of house rabbit; assay: Effects on intraocular pressure (animal experiment); type: in vivo, colored house rabbits
Method: For the experiments, five (10 eyes) colored house rabbits (body weight: 1.8 to 2 kg) with 8 months to 10 months from the birth were used. […] Intraocular pressure of the house rabbit before treating with eye drops/eye washes was 14 mmHg at 1 PM. […] The maximum dropping of the intraocular pressure appeared after 50 minutes from washing. Lowering effects of intraocular pressure continued at least up to after 5 hours from washing. […] This house rabbit was immediately washed again with the same eye drops/eye washes, intraocular pressure was lowered up to 13 mmHg after 45 minutes from washing. The house rabbit subjected to eye drops/eye washes treatment was allowed to stand, and intraocular pressure was measured next day at 9 AM, it was 18 mmHg, and the effects of eye drops/eye washes at the previous day remained. […] The effects of administration can be found to be continued for a long time.

[3] = test system: high intraocular pressure open-angle glaucoma; assay: Example 10: high intraocular pressure open-angle glaucoma patient; type: in vivo, human; parameters: intraocular pressure, right: dose or concentration left out as unconfirmed
Method: The patient is person diagnosed as high intraocular pressure open-angle glaucoma. Water-soluble 17β-estradiol inclusion product (Cyclodextrin-encapsulated 17β-estradiol available from SIGMA CO. […] To the above-mentioned patient, 1 drop (25 μl) of eye drops was dropped once every morning for a week.

[4] = test system: cataract; assay: Example 11: cataract patient; type: in vivo, human; conditions: 1 mg/l, 1 drop (50 μl) once per day
[5] = test system: presbyopia; assay: Example 12: presbyopia, near point; type: in vivo, human; conditions: for near point, left eye: before 29 cm
Method: The patient is person of presbyopia having slight myopia of −2.5 dioptre and −1.0D of astigmatism. When a near point of the left eye of the patient was measured without lens correction, it was 29 cm. Water-soluble 17β-estradiol inclusion product (Cyclodextrin-encapsulated 17β-estradiol available from SIGMA CO. […] To the patient was dropped 1 drop (25 μl) of eye drops at 9 AM per each eye. […] Incidentally, the far point was 41±2 cm in average.

[6] = test system: pigmentary retinal degeneration; assay: Example 13: pigmentary retinal degeneration; type: in vivo, human; conditions: after 77 days
Method: The patient is person, and has artificial intraocular lens inserted eyes already carried out a cataract operation. Due to pigmentary retinal degeneration, narrowing of visual field occurs. […] After 77 days from initiation of administration, it could be confirmed that both of visual acuity and visual field were improved. Also, when the visual fields were measured by OCTOPUS 1-2-3 static perimeter before administration and after 77 days from the initiation of the administration, and they were compared, it can be confirmed to be improved. (see FIGS. 27 to 30)

[7] = test system: chalazion; assay: Example 14: chalazion; type: in vivo, human; conditions: child, right eye; 1 mg/l, 1 drop (50 μl) once every morning
[8] = test system: myopia; assay: Example 15: myopia; type: in vivo, human
[9] = test system: presbyopia; assay: Example 16: presbyopia, corrected near visual acuity; type: in vivo, human; conditions: after 14 days; before 0.4
From the text: To […] with presbyopia having corrected near visual acuity (near vision after correction) before treatment of […]

[10] = test system: Mooren's corneal ulcer; assay: Example 18: corneal ulcer; type: in vivo, human; conditions: person, right eye; 1 mg/l, 1 drop (50 μl) twice a day
From the text: Thus, it can be considered that treatment of autoimmune disease is possible.

[11] = test system: granular corneal degeneration; assay: Example 19: corneal degeneration; type: in vivo, human
[12] = test system: iridocyclitis; assay: Example 20: iridocyclitis; type: in vivo, human; conditions: person, right eye; 1 mg/l, 1 drop (50 μl) every morning; after 1 week
[13] = test system: Posner-Schlossmans' Syndrome; assay: Example 21: Posner-Schlossmans' Syndrome; type: in vivo, human
[14] = test system: schizophrenia; assay: Example 22: central nerve diseases (schizophrenia patient); type: in vivo, human
[15] = test system: diabetic retinopathy; assay: Example 24: diabetic retinopathy; type: in vivo, human
[16] = test system: macular hole; assay: Example 25: macular hole; type: in vivo, human
[17] = test system: corneal endothelial cells; assay: Example 27: regeneration and protection of corneal endothelial cells; type: in vivo, human; conditions: 10 days
From the text: As a measurement device, NONCON ROBO (KONAN INC) specular microscope was used.

[18] = test system: photopsia; assay: Example 28: photopsia; type: in vivo, human; conditions: person; 10 mg/l, 1 drop (50 μl) once a day for 3 weeks
[19] = test system: asthenopia; assay: Example 30: asthenopia; type: in vivo, human; conditions: person; 10 mg/l, once (50 μl) a day; 3 weeks

C[C@]12CC[C@@H]3c4ccc(O)cc4CC[C@H]3[C@@H]1CC[C@@H]2O [17β-estradiol]
appearance of cataract, pre-administered vs post-administered group ([1]; administered 1 minute before vs after irradiation): less appearance of cataract | occurrence of cataract at the tenth day ([1]; eye drops 0.1 g/l or 0.01 g/l, 1 drop (50 μl), pre- and post-administered groups, vs PBS control): occurrence of cataract had scarcely observed | intraocular pressure ([2]; 25 μl (1 drop) of 100 mg/l at 1 PM, after 3.5 hours, before 14 mmHg): 10 mmHg | time the intraocular pressure effect continued ([2]; after 25 μl drop at 1 PM): ≥ 5 h | time the lowering effect of intraocular pressure continued ([2]; after washing): ≥ 5 h | time of maximum dropping of intraocular pressure ([2]; after washing with 100 mg/l eye washes at 1 PM): 50 min | intraocular pressure ([2]; high-pressure eye, 45 minutes after second washing): 13 mmHg | intraocular pressure ([2]; high-pressure eye, next day 9 AM, before further administration): 18 mmHg | intraocular pressure ([2]; high-pressure eye, second day, 1 hour 50 minutes after third 25 μl drop): 12 mmHg | intraocular pressure ([2]; high-pressure eye, second day, 3 hours 15 minutes after 25 μl drop): 13 mmHg | intraocular pressure ([2]; high-pressure eye, second day, 3 hours 15 minutes after second 25 μl drop): 13 mmHg | intraocular pressure ([2]; high-pressure eye, third day 3:15 PM): 12 mmHg | intraocular pressure ([2]; high-pressure eye, third day 6 PM): 11 mmHg | intraocular pressure ([2]; high-pressure eye, third day 9 AM before administration): 10 mmHg | intraocular pressure ([2]; high-pressure eye, third day noon, 3 hours after 25 μl drop): 9 mmHg | intraocular pressure ([2]; rabbit with one high-pressure eye, 24 mmHg before, 15 minutes after washing at 5 PM): 15 mmHg | intraocular pressure, left ([3]; after a week, before 24): 18 mmHg | visual field, left eye ([3]; after a week, progressed defect before): slightly improved | visual field, right eye ([3]; after a week, slight defect before): substantially normally recovered | intraocular pressure, left ([3]; at 3 weeks): 19 mmHg | intraocular pressure, right ([3]; at 3 weeks): 20 mmHg | intraocular pressure, right ([3]; person, inclusion product […], 1 drop (25 μl) every morning, after a week, before 23): 16 mmHg | opacity of cataract, slit lamp microscope [4]: opacity of cataract had been reduced | visual acuity [4]: improvement in visual acuity was admitted | near point, left eye ([5]; after 3 hours): 24 cm | far point, average ([5]; in vivo): 41±2 cm | maximum improvement in refraction (near point) ([5]; in vivo): 5 cm | near point, left eye ([5]; person, 100 mg/l, 1 drop (25 μl), after 1 hour): 27 cm | visual fields by OCTOPUS 1-2-3 static perimeter [6]: improved | Vs vision after correction ([6]; before 0.8): 1.0 | visual acuity Vs ([6]; before 0.8): 0.5 | time until tumor disappeared [7]: 12 days | visual acuity Vs ([8]; (1) after 9 days, before 0.6): 1.0 | visual acuity Vs ([8]; (2) after 45 days, before 0.3): 0.5 | near vision after correction Vs (30 cm) [9]: 0.7 | time in which the disease was cured [10]: 3 weeks | Vs vision after correction ([11]; (1) 2 weeks, before n·c): 0.8 | visual acuity Vs ([11]; (1) person, left eye, 1 mg/l, 1 drop twice a day, 2 weeks, before 0.6 (n·c)): 0.4 | iridocyclitis outcome [12]: inflammatory cells in anterior chamber disappeared | iritis ([13]; after 1 week): iritis disappeared | intraocular pressure Tos ([13]; patient, left eye, 1 mg/l, 1 drop (50 μl) once a day for 1 week, before 36): 17 mmHg | visual acuity Vs ([14]; after 14 days, initiation 0.09): Vs = 0.1 × IOL (0.1) | Vs vision after correction ([14]; after 14 days, initiation 0.1): Vs = 0.1 × IOL (0.1) | Vs vision after correction ([14]; after 42 days): 0.1 | visual acuity Vs ([14]; after 42 days): 0.09 | Vs vision after correction ([14]; after 77 days): 0.15 | visual acuity Vs ([14]; after 77 days): 0.1 | Vs vision after correction ([14]; after 115 days): 0.2 | visual acuity Vs ([14]; after 115 days): 0.09 | mental state ([14]; patient's statement after 42 days, overall): improvement in mental state; also recorded: be encouraged | retinal bleeding ([15]; after about 100 days): retinal bleeding was disappeared | retinal bleeding, photograph of eyegrounds ([15]; person, 1 mg/l, 1 drop (50 μl) once everyday, after about 2 months): slightly improved | visual acuity, left eye ([16]; after 1 month, before 0.7): 1.2 | macular hole outcome ([16]; person, left eye, 10 mg/l, 1 drop (50 μl) twice a day for 1 month): macular hole was cured | number of left eye endothelial cells ([17]; before 2906): 3496 per mm^2 | number of right eye endothelial cells ([17]; person, 1 mg/l, 1 drop (50 μl) once a day, before 2801): 3410 cells/mm² | photopsia symptom [18]: the symptom was lightened | asthenopia [19]: asthenopia was lightened
